Tests used:
[1] = target: recombinant human DAAO protein (Homo sapiens (Human), UniProt P14920); assay: DAAO inhibitory activity test (H2O2 production, Amplex red/HRP fluorescence); format: biochemical; conditions: recombinant human DAAO 15 nM, D-alanine substrate, FAD, pH 7.5
Description: The DAAO inhibitory activity was measured by assaying the amount of hydrogen peroxide (H2O2) produced by reacting DAAO protein with flavin adenine dinucleotide (FAD) and D-alanine. The amount of H2O2 was determined by measuring the fluorescence generated on conversion of Amplex red (manufactured by Invitrogen Co.) into resorufin by the reaction of H2O2 with horseradish peroxidase (HRP).
Escherichia coli strain BL21(DE3) (manufactured by Novagen) was transformed with the constructed human DAAO expression vector, inoculated into LB culture medium containing kanamycin at a final concentration of 20 μg/mL, and shake-cultured at 37° C. overnight. The multiplied transformant was inoculated into Terrific Broth containing kanamycin at a final concentration of 20 μg/mL, and shake-cultured at 37° C. until it reached OD600=3.0. Thereafter, the culture was cooled to 30° C., and expression was induced with 1 mM IPTG. After 20 hours, bacterial pellets were recovered by centrifugation.
The bacterial pellets recovered as above were suspended in a lysis buffer (17 mM sodium pyrophosphate buffer pH 8.3, 100 μM FAD, 1 mM sodium benzoate, 1 mM PMSF, 14 mM β-mercaptoethanol, 0.2 mg/mL lysozyme) and the bacteria were fractured by sonication. The sonicated liquid was centrifuged and the supernatant was recovered. To remove the nucleic acid, to this supernatant were sequentially added NaCl (final concentration 0.5M) and 0.05% ethyleneimine (polymer) and, after thorough mixing, the supernatant was recovered by centrifugation. The supernatant was heat treated at 55° C. for 15 min, and the supernatant was recovered by centrifugation. To this supernatant was added 40% saturated ammonium sulfate and, after thorough mixing, the salt precipitate was recovered by centrifugation. The obtained salt precipitate was redissolved in buffer A (50 mM potassium phosphate buffer pH 7.4, 10% glycerol, 200 μM sodium benzoate, 10 μM FAD, 20% saturated ammonium sulfate), and filtered through a 0.22 μm filter (manufactured by Millipore). The obtained filtrate was applied to a hydrophobic interaction column Butyl-S Sepharose 6 Fast Flow (manufactured by GE Healthcare Life Sciences) and eluted with buffer B (10 mM Tris buffer solution pH 8.0, 200 μM sodium benzoate, 10% glycerol, 10 μM FAD). The eluent was applied to an anion-exchange column, Q Sepharose Fast Flow (manufactured by GE Healthcare Life Sciences) and eluted using an NaCl concentration gradient. The eluate was replaced with buffer B (sic) using Amicon Ultra-15 10 kDa (manufactured by Millipore), and thereafter applied to an anion-exchange column, RESOURCE Q 6 mL (manufactured by GE Healthcare Life Sciences), and eluted with an NaCl concentration gradient. The eluate was concentrated using Amicon Ultra-15 10 kDa, thereafter applied to a HiLoad 26/600 Superdex 200 pg (manufactured by GE Healthcare Life Sciences) gel filtration column equilibrated with buffer C (10 mM potassium phosphate buffer pH 7.4, 0.5M NaCl, 400 μM sodium benzoate, 20 μM FAD), and the DAAO protein dimer fraction was recovered. The recovered DAAO protein was replaced (sic) with buffer D (10 mM trisodium citrate, 20 μM FAD, 400 μM sodium benzoate) using Amicon Ultra-15 10 kDa, concentrated to 10 mg/mL and cryopreserved at −80° C.

[2] = target: HEK293 cells that stably express human DAAO (Homo sapiens (Human), UniProt P14920); assay: Inhibitory activity test at cellular level using DAAO-expressing cells; format: cell-based; conditions: D-alanine substrate
Description: HEK293 cells that stably express human DAAO were suspended in Cellbanker solution at 5×10^6 cells/ml and cryopreserved at −80° C. At the time of measurement, the cells were centrifuged at 1000 rpm for one min and the Cellbanker solution was removed. […] A 4% DMSO buffer solution (50 mM sodium phosphate [pH 7.5], 0.02% CHAPS) of the test compound (4 μL) was added to a 384-well black, low volume plate, the cell suspension (4 μL) was added, and the mixture was incubated at room temperature for 15 min.
Reverse transcription was performed on human normal kidney tissue-derived RNA (Clontech Corp.) using reverse transcriptase (SuperScriptIII, Life Technologies Corporation) and oligo (dT) primer (Life Technologies Corporation) according to the protocol of the kit (Life Technologies Corporation) and cDNA was synthesized. Then, using human DAAO_HindIII_F represented by Sequence No. 1 and human DAAO_BamHI_R represented by Sequence No. 2, a PCR reaction (35 cycles of 98° C. for 15 sec, 55° C. for 15 sec and 68° C. for 1 min 30 sec) was performed using DNA polymerase (PrimeSTAR, TAKARA BIO INC.) and cDNA obtained as above as a template. […] The PCR product was cloned in a cloning vector (pCR2.1-TOPO Cloning Kit, Life Technologies Corporation). The sequence of the insert was determined by the dideoxy sequence method (BigDye Terminator v3.1 Cycle Sequencing Kit; Life Technologies Corporation).
To express the ORF full length of DAAO as a protein, the above-mentioned vector was subjected to an enzyme reaction with restriction enzymes HindIII and BamHI at 37° C. for 3 hr, and the restriction enzyme-treated DNA fragment was purified. The DNA fragment containing the ORF was cloned to HindIII and BamHI sites present in the multiple cloning site of the expression vector (pcDNA3.1(+): Invitrogen Co.), whereby an expression plasmid (hDAAO/pcDNA3.1) was constructed.
Then, HEK293 cells were transfected to obtain the forced expression cell line. The cells were spread on a collagen-coated 24-well plate (Corning) to contain 1.0×10^5 cells per well on the day before transfection and, using Lipofectamine 2000 (Invitrogen) and hDAAO/pcDNA3.1, transfected according to the protocol. Thereafter, subculture was performed several times using 800 μg/mL geneticin, whereby a drug resistant cell line was obtained.
To confirm acquisition of the human DAAO expression cell line, the cells were spread on a collagen-coated 384-well black, clear bottom plate to 2.5×10^4 per well, and the cells were cultured at 37° C. in the presence of 5% CO2 for 24 hr. After culturing, the culture supernatant was removed, and a solution containing flavin adenine dinucleotide was added to Hanks-20 mM Hepes (pH 7.4) buffer to 5.5 μg/mL, added by 20 μL per well to the wells from which the supernatant had been removed, and the mixture was allowed to react at 37° C. in the presence of 5% CO2 for 1 hr.

IC50 [1] | SMILES | IC50 [2]
8.1 nM | COCCCc1cc(O)c(=O)[nH]n1 [Example 26] | 
2.3 nM | O=c1[nH]nc(CCc2cccc3ccccc23)cc1O [Example 56] | 8.8 nM
44 nM | O=c1[nH]cc(CCC2CCCCC2)cc1O [Example 58] | 
5.2 nM | COc1ccc(SCc2cc(=O)c(O)n[nH]2)cc1 [Example 47] | 12 nM
6.9 nM | CCCCc1cc(O)c(=O)[nH]n1 [Example 29] | 13 nM
6.1 nM | Cc1ccc(CCc2cc(O)c(=O)[nH]n2)cc1 [Example 13] | 14 nM
2.3 nM | O=c1cc(COc2cccc(F)c2)[nH]nc1O [Example 232] | 13 nM
2.5 nM | Cc1cccc(CCc2cc(O)c(=O)[nH]n2)c1 [Example 20] | 4.6 nM
2.9 nM | O=c1cc(COc2ccc(F)cc2)[nH]nc1O [Example 231] | 13 nM

SMILES | IC50 [1] | IC50 [2]
Cc1cc(C)cc(CCc2cc(O)c(=O)[nH]n2)c1 [Example 40] | 4.7 nM | 9.8 nM
CC(C)(C)c1ccc(CCc2cc(O)c(=O)[nH]n2)cc1 [Example 25] | 6.6 nM | 18 nM
O=c1[nH]nc(CCc2ccc(F)cc2F)cc1O [Example 21] | 2.2 nM | 5.5 nM
O=c1[nH]nc(CCc2ccc(-c3ccccc3)cc2)cc1O [Example 15] | 1.2 nM | 16 nM
O=c1[nH]nc(CCc2ccc(OC(F)(F)F)cc2)cc1O [Example 28] | 8.1 nM | 18 nM
O=c1[nH]nc(CCCCc2ccccc2)cc1O [Example 52] | 2.5 nM | 11 nM
Cc1ccccc1CCc1cc(O)c(=O)[nH]n1 [Example 22] | 3.3 nM | 8.4 nM
